Values joined by “and” are separate entries in the source; they are usually repeats but may differ in a detail not shown here. Identical values can stand only once.
Legend:
Conditions in all cases: at 1 µM
[1] = target: T1, Inhibitor of nuclear factor kappa-B kinase subunit alpha (Homo sapiens) (UniProt O15111)
T1 sequence (whole entry): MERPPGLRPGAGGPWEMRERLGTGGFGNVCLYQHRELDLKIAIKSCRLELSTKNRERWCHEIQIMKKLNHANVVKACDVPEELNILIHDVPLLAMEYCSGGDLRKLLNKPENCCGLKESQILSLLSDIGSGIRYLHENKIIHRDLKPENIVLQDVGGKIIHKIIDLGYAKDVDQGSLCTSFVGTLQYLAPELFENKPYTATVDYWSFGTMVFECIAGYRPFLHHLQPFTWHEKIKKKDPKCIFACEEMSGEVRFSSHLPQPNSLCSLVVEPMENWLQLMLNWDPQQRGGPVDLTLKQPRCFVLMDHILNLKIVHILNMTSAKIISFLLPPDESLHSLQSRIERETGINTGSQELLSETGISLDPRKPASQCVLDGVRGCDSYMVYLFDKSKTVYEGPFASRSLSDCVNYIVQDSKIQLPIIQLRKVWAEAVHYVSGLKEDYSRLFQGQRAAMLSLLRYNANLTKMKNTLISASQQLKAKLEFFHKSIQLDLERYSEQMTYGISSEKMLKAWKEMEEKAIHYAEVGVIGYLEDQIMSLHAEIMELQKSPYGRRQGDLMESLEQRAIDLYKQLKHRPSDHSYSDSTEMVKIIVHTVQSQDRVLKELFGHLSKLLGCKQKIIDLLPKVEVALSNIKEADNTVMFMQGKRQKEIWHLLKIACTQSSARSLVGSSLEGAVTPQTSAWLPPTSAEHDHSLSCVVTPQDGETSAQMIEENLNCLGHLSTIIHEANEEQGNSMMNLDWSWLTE

[2] = target: T2, Inhibitor of nuclear factor kappa-B kinase subunit beta (Homo sapiens) (UniProt O14920)
T2 sequence (whole entry): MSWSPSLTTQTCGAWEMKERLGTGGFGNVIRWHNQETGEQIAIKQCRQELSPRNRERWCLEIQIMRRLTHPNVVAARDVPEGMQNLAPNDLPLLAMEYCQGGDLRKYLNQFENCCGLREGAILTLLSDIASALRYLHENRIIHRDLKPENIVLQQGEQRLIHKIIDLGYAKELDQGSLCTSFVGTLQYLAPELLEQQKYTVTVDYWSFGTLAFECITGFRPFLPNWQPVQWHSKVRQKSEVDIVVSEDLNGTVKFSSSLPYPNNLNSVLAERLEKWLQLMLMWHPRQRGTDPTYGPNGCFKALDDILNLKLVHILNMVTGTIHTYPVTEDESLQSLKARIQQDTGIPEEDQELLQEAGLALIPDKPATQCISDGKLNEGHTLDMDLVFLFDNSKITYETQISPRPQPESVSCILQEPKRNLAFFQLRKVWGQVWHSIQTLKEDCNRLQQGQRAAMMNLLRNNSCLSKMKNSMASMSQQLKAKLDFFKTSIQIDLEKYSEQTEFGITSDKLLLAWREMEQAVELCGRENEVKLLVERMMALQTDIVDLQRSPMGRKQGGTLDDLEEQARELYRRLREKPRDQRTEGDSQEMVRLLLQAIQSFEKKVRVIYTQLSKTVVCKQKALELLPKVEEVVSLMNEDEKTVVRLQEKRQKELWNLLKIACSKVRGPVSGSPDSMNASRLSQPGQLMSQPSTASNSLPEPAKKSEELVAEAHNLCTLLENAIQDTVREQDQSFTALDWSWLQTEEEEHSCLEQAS

[3] = target: T3, Inhibitor of nuclear factor kappa-B kinase subunit epsilon (Homo sapiens) (UniProt Q14164)
T3 sequence (whole entry): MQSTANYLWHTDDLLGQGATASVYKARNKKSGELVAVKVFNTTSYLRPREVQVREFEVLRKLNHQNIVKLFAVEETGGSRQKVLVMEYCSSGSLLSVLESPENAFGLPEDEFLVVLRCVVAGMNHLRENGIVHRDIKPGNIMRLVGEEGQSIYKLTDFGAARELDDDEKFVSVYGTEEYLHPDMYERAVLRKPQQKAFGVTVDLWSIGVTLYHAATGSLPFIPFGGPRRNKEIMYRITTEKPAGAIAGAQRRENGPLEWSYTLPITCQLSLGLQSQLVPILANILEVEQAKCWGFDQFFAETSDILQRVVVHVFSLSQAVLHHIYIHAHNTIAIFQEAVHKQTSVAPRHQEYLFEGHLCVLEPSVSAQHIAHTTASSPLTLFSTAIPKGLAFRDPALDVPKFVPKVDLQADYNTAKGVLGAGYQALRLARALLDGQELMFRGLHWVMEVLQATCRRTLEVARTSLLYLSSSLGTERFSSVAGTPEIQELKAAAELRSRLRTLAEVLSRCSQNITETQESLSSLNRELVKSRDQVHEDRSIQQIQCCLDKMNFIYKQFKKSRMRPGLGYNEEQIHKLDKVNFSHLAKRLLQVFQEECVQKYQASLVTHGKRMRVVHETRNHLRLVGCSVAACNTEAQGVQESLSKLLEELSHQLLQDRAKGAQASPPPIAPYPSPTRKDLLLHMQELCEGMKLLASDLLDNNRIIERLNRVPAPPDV

Row | inhibition [1] | inhibition [2] | inhibition [3] | SMILES
1 | 13% | 0% and -2% | 0% | COc1cccc(-n2ncc3c(N/N=C/c4ccc(C)cc4)ncnc32)c1
2 | 3% and 2% | -1% | 3% and 0% | COc1cccc(-n2ncc3c(N/N=C/c4ccc(S(C)(=O)=O)cc4)ncnc32)c1
3 | -4% | -2% and -3% | 3% and 0% | CC1=C(C(=O)Nc2ccc3[nH]ncc3c2)C(c2ccc(F)cc2)N=C(c2ccc(C(F)(F)F)nc2)N1 (centres undefined)

Source: ChEMBL document CHEMBL2007661, “Compounds: GSK PKIS; Assays: UNC Frye lab” (2012)
